PMC4195764, “Molecular mechanism of ligand recognition by membrane transport protein, Mhp1” (The EMBO Journal, 2014)

How the values were obtained:
Mhp1 [1] = biological target: T1, Mhp1 (Microbacterium maritypicum, UniProt D6R8X8); assay: inhibition of […]-L-IMH uptake into E. coli cells expressing Mhp1; type: cell-based; parameters: gene hyuP; full-length membrane protein expressed in E. coli BL21(DE3) from pSHP11; conditions: read-out: Apparent IC5_0
T1 sequence (D6R8X8 1-489): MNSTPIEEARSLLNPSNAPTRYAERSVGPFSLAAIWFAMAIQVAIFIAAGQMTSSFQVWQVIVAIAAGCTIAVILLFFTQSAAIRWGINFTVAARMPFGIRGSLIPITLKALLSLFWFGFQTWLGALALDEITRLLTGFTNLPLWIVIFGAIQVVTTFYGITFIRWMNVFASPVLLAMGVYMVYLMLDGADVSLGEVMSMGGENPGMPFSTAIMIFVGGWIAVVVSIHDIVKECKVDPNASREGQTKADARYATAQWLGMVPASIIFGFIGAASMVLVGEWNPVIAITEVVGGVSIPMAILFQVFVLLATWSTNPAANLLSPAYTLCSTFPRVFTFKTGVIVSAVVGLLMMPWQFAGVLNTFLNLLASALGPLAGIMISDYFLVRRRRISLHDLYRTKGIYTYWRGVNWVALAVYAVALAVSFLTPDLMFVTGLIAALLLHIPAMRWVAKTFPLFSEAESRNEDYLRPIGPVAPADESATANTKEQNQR

Mhp1 [2] = biological target: T1, Mhp1; assay: stopped-flow tryptophan spectrophotofluorimetry; type: binding; parameters: gene hyuP; full-length membrane protein expressed in E. coli BL21(DE3) from pSHP11; GFP-fusion purified for crystallography (details in supplement); conditions: read-out: Apparent Kd
From the text: stopped-flow tryptophan spectrophotofluorimetry on Mhp1

Mhp1 [3] = biological target: T2, Mhp1 (Microbacterium maritypicum, UniProt D6R8X8, L363A); assay: uptake of […]-L-NMH into E. coli cells expressing mutant; type: cell-based; conditions: 50 μM labelled compound, 150 mM NaCl, pH 6.6, 15 s; not transported by wild type
T2 construct: gene hyuP; full-length membrane protein expressed in E. coli BL21(DE3) from pSHP11; GFP-fusion purified for crystallography (details in supplement)
T2 sequence (D6R8X8 whole entry L363A, the tested form may be a part): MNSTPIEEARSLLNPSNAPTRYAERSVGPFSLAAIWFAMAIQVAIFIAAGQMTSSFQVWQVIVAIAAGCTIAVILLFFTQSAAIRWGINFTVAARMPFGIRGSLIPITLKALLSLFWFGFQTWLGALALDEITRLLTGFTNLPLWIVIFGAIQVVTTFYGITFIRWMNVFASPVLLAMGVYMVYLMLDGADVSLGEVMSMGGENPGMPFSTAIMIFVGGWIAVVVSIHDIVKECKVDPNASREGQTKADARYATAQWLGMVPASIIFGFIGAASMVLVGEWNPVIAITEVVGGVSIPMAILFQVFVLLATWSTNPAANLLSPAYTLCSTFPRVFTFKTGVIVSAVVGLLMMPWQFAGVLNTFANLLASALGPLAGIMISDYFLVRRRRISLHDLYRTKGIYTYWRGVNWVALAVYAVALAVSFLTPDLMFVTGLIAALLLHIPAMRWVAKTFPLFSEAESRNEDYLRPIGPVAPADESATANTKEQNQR

Row | SMILES | IC50 (Mhp1 [1]) [µM] | Kd (Mhp1 [2]) [µM] | uptake of 14C-L-NMH into E. coli cells expressing mutant (Mhp1 [3])
1 | O=C1NC(=O)C(=Cc2cccc(Br)c2)N1 (stereo in doubt) [BVH, (5E)-5-[(3-bromophenyl)methylidene] imidazolidine-2,4-dione] | 38.8 ± 1.1 | 2 ± 0.2 | –
2 | O=C1NC(=O)[C@@H](Cc2ccccc2)N1 [D-BH] | – | 130 ± 10 | –
3 | O=C1NC(=O)[C@@H](Cc2c[nH]c3ccccc23)N1 [D-IMH] | – | 20.6 ± 3.8 | –
4 | O=C1NC(=O)[C@@H](Cc2ccc3ccccc3c2)N1 [D-NMH] | 17.1 ± 1.1 | 1.8 ± 0.3 | –
5 | O=C1NC(=O)[C@H](Cc2ccccc2)N1 [L-BH, (5S)-5-benzylimidazolidine-2,4-dione] | 945 ± 1.1 | 36 ± 1.4 | –
6 | O=C1NC(=O)[C@H](Cc2c[nH]c3ccccc23)N1 [L-IMH, (5S)-5-(1H-indol-3-ylmethyl)imidazolidine-2,4-dione] | 119.2 ± 1.1 | 19 ± 2 | –
7 | O=C1NC(=O)[C@H](Cc2ccc3ccccc3c2)N1 [L-NMH, (5S)-5-(naphthalen-2-ylmethyl)imidazolidine-2,4-dione] | 14.9 ± 1.1 | 3.6 ± 0.8 | when Leu363 was mutated to an alanine, uptake was restored
